Source: patent US11596639B2, “Substituted indole Mcl-1 inhibitors” (Vanderbilt University, priority 2016, dated 2023)
Where two headings read alike, the source gives them in different places.

Experiments:
[1] = biological target: Mcl-1 (Homo sapiens (Human), UniProt Q07820); experiment: Fluorescence polarization anisotropy (FPA) competition assay, FITC-Bak or FITC-Bim BH3 peptide; type: binding; conditions: read-out: Ki for Inhibition of Mcl-1 by FPA assay
[2] = tested on: H929 human cancer cell lines; experiment: Cellular viability / proliferation (Cell TiterGlo, 72 h); type: cell-based
Method in brief: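 Plating is at 1,000 cells/well in 10% FBS medium; after 24 h, compound is added as a 2-fold series starting at 50 μM with under 1% DMSO.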

[3] = Homo sapiens, NCI-H929, 72 h, read-out: GI50 on cellular proliferation of H929 human cancer cell lines, H929 cells, 72 h, Cell TiterGlo, 10% FBS

Chain of Mcl-1 (Q07820 172-327): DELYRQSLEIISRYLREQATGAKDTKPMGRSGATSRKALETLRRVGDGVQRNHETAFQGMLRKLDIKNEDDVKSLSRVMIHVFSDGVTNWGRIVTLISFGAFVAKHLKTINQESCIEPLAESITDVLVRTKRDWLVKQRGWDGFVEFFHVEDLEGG

SMILES	Ki [1]	GI50 [2, 3]	GI50 ([2]; H929 cells, 72 h, Cell TiterGlo, 10% FBS, read-out: GI50 on cellular proliferation of H929 human cancer cell lines)
Cc1cc(OCCCc2c3n(c4c(-c5c(C)n[nH]c5C)c(Cl)ccc24)[C@H](C)CN(c2cc(C(=O)O)c4cnn(C)c4c2)C3=O)cc(C)c1Cl [Example 93, (R)-6-(7-chloro-10-(3-(4-chloro-3,5-dimethylphenoxy)propyl)-6-(3,5-dimethyl-1H-pyrazol-4-yl)-4-methyl-1-oxo-3,4-dihydropyrazino[1,2-a]indol-2(1H)-yl)-1-methyl-1H-indazole-4-carboxylic acid]	< 1 nM	7500 nM	–
COc1ccc(N2C[C@@H](C)n3c(c(CCCOc4cc(C)c(Cl)c(C)c4)c4ccc(Cl)c(-c5c(C)nn(C)c5C)c43)C2=O)c2c1cc(C(=O)O)n2Cc1ccccn1 [Example 313, 7-[(4R)-7-chloro-10-[3-(4-chloro-3,5-dimethyl-phenoxy)propyl]-4-methyl-1-oxo-6-(1,3,5-trimethylpyrazol-4-yl)-3,4-dihydropyrazino[1,2-a]indol-2-yl]-4-methoxy-1-(2-pyridylmethyl)indole-2-carboxylic acid]	< 1 nM	< 200 nM	–
Cc1cc(OCCCc2c3n(c4c(-c5c(C)n[nH]c5C)c(Cl)ccc24)CCCN(c2cccc4cccnc24)C3=O)cc(C)c1Cl [Example 150, 8-Chloro-11-(3-(4-chloro-3,5-dimethylphenoxy)propyl)-7-(3,5-dimethyl-1H-pyrazol-4-yl)-2-(quinolin-8-yl)-2,3,4,5-tetrahydro-1H-[1,4]diazepino[1,2-a]indol-1-one]	13 nM	–	5100 nM
Cc1cc(OCCCc2c3n(c4c(-c5c(C)nn(C)c5C)c(Cl)ccc24)[C@H](C)CN(c2ccc4nc(C(=O)O)ccc4c2)C3=O)cc(C)c1Cl [Example 102, (R)-6-(7-Chloro-10-(3-(4-chloro-3,5-dimethylphenoxy)propyl)-4-methyl-1-oxo-6-(1,3,5-trimethyl-1H-pyrazol-4-yl)-3,4-dihydropyrazino[1,2-a]indol-2(1H)-yl)quinoline-2-carboxylic acid]	1.5 nM	4900 nM	–
Cc1cc(OCCCc2c3n(c4c(-c5c(C)nn(C)c5C)c(Cl)ccc24)CCCN(c2cc(C(=O)O)c4cnn(CCN(C)C)c4c2)C3=O)cc(C)c1Cl [Example 30, 6-[8-Chloro-11-[3-(4-chloro-3,5-dimethyl-phenoxy)propyl]-1-oxo-7-(1,3,5-trimethylpyrazol-4-yl)-4,5-dihydro-3H-[1,4]diazepino[1,2-a]indol-2-yl]-1-[2-(dimethylamino)ethyl]indazole-4-carboxylic acid]	1.2 nM	5400 nM	–
COCCn1c(C(N)=O)cc2cccc(N3C[C@@H](C)n4c(c(CCCOc5cc(C)c(Cl)c(C)c5)c5ccc(Cl)c(-c6c(C)nn(C)c6C)c54)C3=O)c21 [Example 354, (R)-7-(7-Chloro-10-(3-(4-chloro-3,5-dimethylphenoxy)propyl)-4-methyl-1-oxo-6-(1,3,5-trimethyl-1H-pyrazol-4-yl)-3,4-dihydropyrazino[1,2-a]indol-2(1H)-yl)-1-(2-methoxyethyl)-1H-indole-2-carboxamide]	4.3 nM	580 nM	–
Cc1cc(OCCCc2c3n(c4c(-c5c(C)nc(CN6CCCC6)nc5C)c(Cl)ccc24)[C@H](C)CN(c2cn(C)c4ccc(C(=O)O)cc24)C3=O)cc(C)c1Cl [Example 390, (R)-3-(7-Chloro-10-(3-(4-chloro-3,5-dimethylphenoxy)propyl)-6-(4,6-dimethyl-2-(pyrrolidin-1-ylmethyl)pyrimidin-5-yl)-4-methyl-1-oxo-3,4-dihydropyrazino[1,2-a]indol-2(1H)-yl)-1-methyl-1H-indole-5-carboxylic acid]	2.3 nM	340 nM	–
Cc1cc(OCCCc2c3n(c4c(-c5c(C)nn(C)c5C)c(Cl)ccc24)[C@H](C)CN(c2cn(C(C)C)c4ccc(C(=O)O)cc24)C3=O)cc(C)c1Cl [Example 166, (R)-3-(7-Chloro-10-(3-(4-chloro-3,5-dimethylphenoxy)propyl)-4-methyl-1-oxo-6-(1,3,5-trimethyl-1H-pyrazol-4-yl)-3,4-dihydropyrazino[1,2-a]indol-2(1H)-yl)-1-isopropyl-1H-indole-5-carboxylic acid]	< 1 nM	1400 nM	–
Cc1cc(OCCCc2c3n(c4c(-c5c(C)nn(C)c5C)c(Cl)ccc24)CCCN(c2cc(C(=O)O)c4c(Cl)cn(C)c4c2)C3=O)cc(C)c1Cl [Example 3, 3-Chloro-6-(8-chloro-11-(3-(4-chloro-3,5-dimethylphenoxy)propyl)-1-oxo-7-(1,3,5-trimethyl-1H-pyrazol-4-yl)-4,5-dihydro-1H-[1,4]diazepino[1,2-a]indol-2(3H)-yl)-1-methyl-1H-indole-4-carboxylic acid]	1.1 nM	6600 nM	–
CC[C@@H]1Cn2c(c(CCCOc3cc(C)c(Cl)c(C)c3)c3ccc(Cl)c(-c4c(C)nn(C)c4C)c32)C(=O)N1c1ccc(C(=O)O)c2ncccc12 [Example 19, (R)-5-(7-chloro-10-(3-(4-chloro-3,5-dimethylphenoxy)propyl)-3-ethyl-1-oxo-6-(1,3,5-trimethyl-1H-pyrazol-4-yl)-3,4-dihydropyrazino[1,2-a]indol-2(1H)-yl)quinoline-8-carboxylic acid]	1.9 nM	4100 nM	–
Cc1cc(OCCCc2c3n(c4c(-c5c(C)nn(C)c5C)c(Cl)ccc24)[C@H](C)CN(c2cn(C)c4ccc(C(=O)NCc5cccnc5)cc24)C3=O)cc(C)c1Cl [Example 287, 3-[(4R)-7-chloro-10-[3-(4-chloro-3,5-dimethyl-phenoxy)propyl]-4-methyl-1-oxo-6-(1,3,5-trimethylpyrazol-4-yl)-3,4-dihydropyrazino[1,2-a]indol-2-yl]-1-methyl-N-(3-pyridylmethyl)indole-5-carboxamide]	3 nM	1600 nM	–
Cc1cc(OCCCc2c3n(c4c(-c5c(C)nn(C)c5C)c(Cl)ccc24)[C@H](C)CN(c2ccc4cc(C(=O)O)ccc4c2)C3=O)cc(C)c1Cl [Example 185, (R)-6-(7-Chloro-10-(3-(4-chloro-3,5-dimethylphenoxy)propyl)-4-methyl-1-oxo-6-(1,3,5-trimethyl-1H-pyrazol-4-yl)-3,4-dihydropyrazino[1,2-a]indol-2(1H)-yl)-2-naphthoic acid]	4.6 nM	2900 nM	–
Cc1cc(OCCCc2c3n(c4c(-c5c(C)nn(C)c5C)c(Cl)ccc24)[C@H](C)CN(c2cn(C)c4cc(-c5nn[nH]n5)ccc24)C3=O)cc(C)c1Cl [Example 236, (R)-7-chloro-10-(3-(4-chloro-3,5-dimethylphenoxy)propyl)-4-methyl-2-(1-methyl-6-(2H-tetrazol-5-yl)-1H-indol-3-yl)-6-(1,3,5-trimethyl-1H-pyrazol-4-yl)-3,4-dihydropyrazino[1,2-a]indol-1(2H)-one]	< 1 nM	1100 nM	–
Cc1cc(OCCCc2c3n(c4c(-c5c(C)nn(C)c5C)c(Cl)ccc24)[C@H](C)CN(c2cn(C)c4ccc(-c5nnn[nH]5)cc24)C3=O)cc(C)c1Cl [Example 251, (R)-7-Chloro-10-(3-(4-chloro-3,5-dimethylphenoxy)propyl)-4-methyl-2-(1-methyl-5-(1H-tetrazol-5-yl)-1H-indol-3-yl)-6-(1,3,5-trimethyl-1H-pyrazol-4-yl)-3,4-dihydropyrazino[1,2-a]indol-1(2H)-one]	< 1 nM	250 nM	–
Cc1cc(OCCCc2c3n(c4c(-c5c(C)nn(C)c5C)c(Cl)ccc24)[C@H](C)CN(c2cn(C)c4c(C)c(C(=O)O)ccc24)C3=O)cc(C)c1Cl [Example 250, (R)-3-(7-Chloro-10-(3-(4-chloro-3,5-dimethylphenoxy)propyl)-4-methyl-1-oxo-6-(1,3,5-trimethyl-1H-pyrazol-4-yl)-3,4-dihydropyrazino[1,2-a]indol-2(1H)-yl)-1,7-dimethyl-1H-indole-6-carboxylic acid]	< 1 nM	480 nM	–
CCn1cc(N2C[C@@H](C)n3c(c(CCCOc4cc(C)c(Cl)c(C)c4)c4ccc(Cl)c(-c5c(C)nn(C)c5C)c43)C2=O)c2ccc(C(=O)O)cc21 [Example 104, (R)-3-(7-Chloro-10-(3-(4-chloro-3,5-dimethylphenoxy)propyl)-4-methyl-1-oxo-6-(1,3,5-trimethyl-1H-pyrazol-4-yl)-3,4-dihydropyrazino[1,2-a]indol-2(1H)-yl)-1-ethyl-1H-indole-6-carboxylic acid]	< 1 nM	570 nM	–
Cc1cc(OCCCc2c3n(c4c(-c5c(C)n[nH]c5C)c(Cl)ccc24)[C@H](C)CN(c2cn(C)c4ccc(C(=O)O)cc24)C3=O)cc(C)c1Cl [Example 129, (R)-3-(7-chloro-10-(3-(4-chloro-3,5-dimethylphenoxy)propyl)-6-(3,5-dimethyl-1H-pyrazol-4-yl)-4-methyl-1-oxo-3,4-dihydropyrazino[1,2-a]indol-2(1H)-yl)-1-methyl-1H-indole-5-carboxylic acid]	< 1 nM	550 nM	–
Cc1cc(OCCCc2c3n(c4c(-c5c(C)nn(C)c5C)c(Cl)ccc24)[C@H](C)CN(c2cc(C(=O)O)cc4c2cc(C(F)(F)F)n4C)C3=O)cc(C)c1Cl [Example 211, 4-[(4R)-7-chloro-10-[3-(4-chloro-3,5-dimethyl-phenoxy)propyl]-4-methyl-1-oxo-6-(1,3,5-trimethylpyrazol-4-yl)-3,4-dihydropyrazino[1,2-a]indol-2-yl]-1-methyl-2-(trifluoromethyl)indole-6-carboxylic acid]	3.1 nM	11000 nM	–
Cc1cc(OCCCc2c3n(c4c(-c5c(C)nn(C)c5C)c(Cl)ccc24)CCCN(c2cccc4c(C(=O)O)n(C)nc24)C3=O)cc(C)c1Cl [Example 16, 7-[8-Chloro-11-[3-(4-chloro-3,5-dimethyl-phenoxy)propyl]-1-oxo-7-(1,3,5-trimethylpyrazol-4-yl)-4,5-dihydro-3H-[1,4]diazepino[1,2-a]indol-2-yl]-2-methyl-indazole-3-carboxylic acid]	< 1 nM	2900 nM	–
